Reference: patent US20120245180A1, “COMBINATION” (GlaxoSmithKline LLC, priority 2009, published 2012)
Like-named read-outs stand apart in the source and are kept apart here.

Assays:
Assay type in all cases: cell-based
Hep3B = experiment: Cell growth inhibition assay, hepatocellular carcinoma cell line (Cell Titer Glo); conditions: Homo sapiens, 72 h, 3 days
Method: (§1) Human tumor cell lines from hepatocellular carcinoma (HCC), C3A, Hep3B, HepG2, PLC/PRF/5, SNU182, SNU387, SNU398, SNU423, SNU449 and SNU475 were purchased from the ATCC. Human breast tumor cell lines, HCC2218, HCC1419, BT-474, SK-BR-3, UACC893, JIMT-1, MDA-MB-361, HCC202, MDA-MB-175-VII, HCC1569, HCC1937, HCC38, MDA-MB-157, HCC1954, HCC1500, BT483, KPL-1, SUM225 and ZR-75-1 from ATCC, SUM52 and SUM190 from Asterand, PLC (Detroit Mich.), were cultured in RPMI 1640 medium containing 10% FBS; SKBR3-W13 and BT-474-J4 cultured in RPMI 1640 medium containing 10% FBS and 1 μM lapatinib; KPL4 line was kindly provided by Dr Junichi Kurebayashi (Kawasaki Medical School, Okayama, Japan) and cultured in DMEM containing 5% FBS. JIMT-1 from European Collection of Cell Cultures (UK), is a line derived from a patient clinically resistant to trastuzumab (Herceptin®). SK-BR-3-W13 is a single cell clone isolated by a cloning cylinder after a single treatment of SK-BR-3 cells with 0.5 μM lapatinib. BT-474-J4 is a single cell clone derived from a pool of BT-474 cells that were selected to grow in lapatinib to a concentration of 3 μM.
(§2) Cells were seeded in a 96-well tissue culture plate (NUNC 136102) of RPMI medium containing 10% FBS at 500-2,000 cells per well. Approximately 24 hours after plating, cells were exposed to ten, two-fold or three-fold serial dilutions of either Compound A or B or the combination of the two agents at a 2:1 molar ratio (Compounds A and B respectively). In some cases, cells were grown in RPMI media containing 10% FBS and in the presence or absence of 2 ng/mL hepatocyte growth factor (HGF). Cells were incubated in the presence of compounds for 3 days. ATP levels were determined by adding Cell Titer Glo® (Promega) according to the manufacturer's protocol. Briefly, Cell Titer Glo® was added to each plate, incubated for 20 minutes then luminescent signal was read on the SpectraMax L plate reader with a 0.5 sec integration time. All assays were run at least in duplicate.
(§3) Inhibition of cell growth was estimated after treatment with compound or combination of compounds for three days and comparing the signal to cells treated with vehicle (DMSO). Cell growth was calculated relative to vehicle (DMSO) treated control wells. Concentration of compound that inhibits 50% of control cell growth (IC50) was back-interpolated when y=50% of DMSO treated control wells using nonlinear regression with the equation: […]
(§4) where A is the minimum response (ymin), B is the maximum response (Ymax), C is the inflection point of the curve (EC50) and D is the Hill coefficient.
(§5) Combination effects on potency were evaluated using the Combination Index (CI) and Excess Over Highest Single Agent (EHOSA) methods.

SNU387 = experiment: as above; conditions: Homo sapiens, SNU-387, 72 h, 3 days
Method: as §1, §2, §3, §4, §5

SNU423 = experiment: as above; conditions: Homo sapiens, SNU-423, 72 h, 3 days
Method: as §1, §2, §3, §4, §5

SNU475 = experiment: as above; conditions: Homo sapiens, SNU-475, 72 h, 3 days
Method: as §1, §2, §3, §4, §5

HepG2 = experiment: as above; conditions: Homo sapiens, HepG2, 72 h, 3 days
Method: as §1, §2, §3, §4, §5

PLC/RF/5 = experiment: as above; conditions: Homo sapiens, 72 h, 3 days
Method: as §1, §2, §3, §4, §5

C3A = experiment: as above; conditions: Homo sapiens, 72 h, 3 days
Method: as §1, §2, §3, §4, §5

SNU398 = experiment: as above; conditions: Homo sapiens, SNU-398, 72 h, 3 days
Method: as §1, §2, §3, §4, §5

SNU182 = experiment: as above; conditions: Homo sapiens, SNU-182, 72 h, 3 days
Method: as §1, §2, §3, §4, §5

SK-BR-3-W13 = experiment: Cell growth inhibition assay, breast tumor cell line (Cell Titer Glo); conditions: Homo sapiens, 72 h; SK-BR-3-W13 (HER2+), 3 days; read-out: Single agent IC50, Compound A
Method: as §1, §2, §3, §4, §5
DNA Copy number data on the HER2 gene was collected for all breast cancer cell lines using the Affymetrix 500K chip (Affymetrix Inc, Sunnyvale, Calif.). Briefly DNA was extracted from each line, digested with the restriction enzyme Nsp or Sty, ligated to an adaptor and amplified by PCR. After PCR, DNA was fragmented, labeled, denatured, and hybridized to the Affymetrix 500K chip. Upon completion of hybridization, each assay was washed and stained. Image data were acquired. Similarly collected data from a panel 10 diploid non-tumorigenic lymphoblastic cell lines were used to calculate DNA copy number. All ‘SNP Chip’ images ('CEL files'), were extracted, read and normalized using the dChip software package (Lin et al. 2004. Bioinformatics. 20:1233-40). SNP-wise ‘copy-number ratios’ (log2 scale) were calculated for all cancer cell lines using the lymphoblastic reference panel and analyzed by circular binary segmentation to reduce noise (Olshen et al. 2004. Biostatistics. 5:557-72). Cell lines with log2 ratios of HER2>0.65 were considered HER2+.

[1] = HGF + (2 ng/ml), read-out: Single agent IC50, Compound B
[2] = HGF −, read-out: Single agent IC50, Compound B
[3] = HGF + (2 ng/ml), read-out: Single agent IC50, Compound A
[4] = HGF −, read-out: Single agent IC50, Compound A

Question: Which IC50 (Hep3B; [1]) does the source give for `COc1ncc(-c2ccc3nccc(-c4ccnnc4)c3c2)cc1NS(=O)(=O)c1ccc(F)cc1F` [Compound B, 2,4-difluoro-N-{2-(methyloxy)-5-[4-(4-pyridazinyl)-6-quinolinyl]-3-pyridinyl}benzenesulfonamide] here?
Answer: Its IC50 is 57 ± 20 nM.

Question: What about the IC50 (Hep3B; [2]) of the same compound?
Answer: Its IC50 is 28 ± 2 nM.

Question: And the IC50 (SNU387; SNU387, HGF + (2 ng/ml), read-out: Single agent IC50, Compound B)?
Answer: Its IC50 is 71 ± 10 nM.

Question: And the IC50 (SNU387; SNU387, HGF −, read-out: Single agent IC50, Compound B)?
Answer: Its IC50 is 103 ± 10 nM.

Question: What about the IC50 (SNU423; SNU423, HGF + (2 ng/ml), read-out: Single agent IC50, Compound B) of the same compound?
Answer: Its IC50 is 21 ± 7 nM.

Question: And the IC50 (SNU423; SNU423, HGF −, read-out: Single agent IC50, Compound B)?
Answer: Its IC50 is 23 ± 16 nM.

Question: What about the IC50 (SNU475; SNU475, HGF + (2 ng/ml), read-out: Single agent IC50, Compound B) of the same compound?
Answer: The IC50 was 39 ± 17 nM.

Question: What about the IC50 (SNU475; SNU475, HGF −, read-out: Single agent IC50, Compound B) of the same compound?
Answer: Its IC50 is 50 ± 19 nM.

Question: And the IC50 (HepG2; HepG2, HGF + (2 ng/ml), read-out: Single agent IC50, Compound B)?
Answer: Its IC50 is 9 ± 5 nM.

Question: What about the IC50 (HepG2; HepG2, HGF −, read-out: Single agent IC50, Compound B) of the same compound?
Answer: The IC50 was 9 ± 8 nM.

Question: What about the IC50 (PLC/RF/5; PLC/RF/5, HGF + (2 ng/ml), read-out: Single agent IC50, Compound B) of the same compound?
Answer: Its IC50 is 15 ± 1 nM.

Question: And the IC50 (PLC/RF/5; PLC/RF/5, HGF −, read-out: Single agent IC50, Compound B)?
Answer: The IC50 was 18 ± 12 nM.

Question: And the IC50 (C3A; [1])?
Answer: Its IC50 is 13 ± 1 nM.

Question: And the IC50 (C3A; [2])?
Answer: Its IC50 is 13 ± 1 nM.

Question: And the IC50 (SNU398; SNU398, HGF + (2 ng/ml), read-out: Single agent IC50, Compound B)?
Answer: Its IC50 is 83 ± 2 nM.

Question: And the IC50 (SNU398; SNU398, HGF −, read-out: Single agent IC50, Compound B)?
Answer: Its IC50 is 98 ± 21 nM.

Question: What about the IC50 (SNU182; SNU182, HGF + (2 ng/ml), read-out: Single agent IC50, Compound B) of the same compound?
Answer: Its IC50 is 17 ± 4 nM.

Question: And the IC50 (SNU182; SNU182, HGF −, read-out: Single agent IC50, Compound B)?
Answer: The IC50 was 17 ± 1 nM.

Question: Which results are given for `CC(=O)Nc1cccc(-n2c(=O)n(C3CC3)c(=O)c3c(Nc4ccc(I)cc4F)n(C)c(=O)c(C)c32)c1` [Compound A, N-{3-[3-cyclopropyl-5-[(2-fluoro-4-iodophenyl)amino]-6,8-dimethyl-2,4,7-trioxo-3,4,6,7-tetrahydropyrido[4,3-d]pyrimidin-1(2H)-yl]phenyl}acetamide]?
Answer: IC50 (Hep3B; [3]): 37 ± 8 nM; IC50 (Hep3B; [4]): 26 ± 8 nM; IC50 (SNU387; SNU387, HGF + (2 ng/ml), read-out: Single agent IC50, Compound A): 94 ± 21 nM; IC50 (SNU387; SNU387, HGF −, read-out: Single agent IC50, Compound A): 74 ± 46 nM; IC50 (SNU423; SNU423, HGF + (2 ng/ml), read-out: Single agent IC50, Compound A): 577 ± 569 nM; IC50 (SNU423; SNU423, HGF −, read-out: Single agent IC50, Compound A): 218 ± 130 nM; IC50 (SNU475; SNU475, HGF + (2 ng/ml), read-out: Single agent IC50, Compound A): > 5000 nM; IC50 (SNU475; SNU475, HGF −, read-out: Single agent IC50, Compound A): > 5000 nM; IC50 (HepG2; HepG2, HGF + (2 ng/ml), read-out: Single agent IC50, Compound A): 3 ± 1 nM; IC50 (HepG2; HepG2, HGF −, read-out: Single agent IC50, Compound A): 1 nM; IC50 (PLC/RF/5; PLC/RF/5, HGF + (2 ng/ml), read-out: Single agent IC50, Compound A): 2870 ± 1560 nM; IC50 (PLC/RF/5; PLC/RF/5, HGF −, read-out: Single agent IC50, Compound A): 1600 ± 509 nM; IC50 (C3A; [3]): 36 ± 11 nM; IC50 (C3A; [4]): 10 ± 3 nM; IC50 (SNU398; SNU398, HGF + (2 ng/ml), read-out: Single agent IC50, Compound A): > 5000 nM; IC50 (SNU398; SNU398, HGF −, read-out: Single agent IC50, Compound A): > 5000 nM; IC50 (SNU182; SNU182, HGF + (2 ng/ml), read-out: Single agent IC50, Compound A): 1280 ± 1220 nM; IC50 (SNU182; SNU182, HGF −, read-out: Single agent IC50, Compound A): 1760 ± 224 nM; IC50 (SK-BR-3-W13): > 1000 nM
